{"source": "patent US20110038948A1", "about": "“Methods of Reducing the Production of Reactive Oxygen Species and Methods of Screening or Identifying Compounds and Compositions that Reduce the Production of Reactive Oxygen Species” (UNIVERSITY OF TENNESSEE RESEARCH FOUNDATION, priority 2005, published 2011)", "key": {"3T3-L1 adipocytes [1]": {"tested_on": "3T3-L1 adipocytes", "experiment": "Cell proliferation / DNA synthesis in cultured adipocytes (CyQUANT)", "type": "cell-based, mouse", "settings": "48 hours", "procedure": "3T3-L1 preadipocytes were incubated at a density of 8000 cells/cm^2 (10 cm^2 dish) and grown in Dulbecco's modified Eagle's medium (DMEM) containing 10% FBS and antibiotics (adipocyte medium) at 37° C. in 5% CO2 in air. Confluent preadipocytes were induced to differentiate with a standard differentiation medium consisting of DMEM-F10 (1:1, vol/vol) medium supplemented with 1% FBS, 1 μM dexamethasone, IBMX (0.5 mM) and antibiotics (1% Penicillin-Streptomycin). Preadipocytes were maintained in this differentiation medium for 3 days and subsequently cultured in adipocyte medium. Cultures were re-fed every 2-3 days to allow 90% of cells to reach full differentiation before conducting chemical treatment. Chemicals were freshly diluted in adipocyte medium before treatment. Cells were washed with fresh adipocyte medium, re-fed with medium containing the different treatments, and incubated at 37° C. in 5% CO2 in air before analysis. Cell viability was measured via trypan blue exclusion. Cells were plated in DMEM with different treatment in duplicate in 96-well plates. After 48 h, a CyQUANT Cell Proliferation Kit (Molecular Probes, Eugene, Oreg.) was used following the manufacturer's protocol. a microplate fluorometer (Packard Instrument Company, Inc., Downers Grove, Ill.) was used to measure CyQUANT fluorescence. Cell viability was determined by Trypan blue exclusion examination."}, "3T3-L1 adipocytes [2]": {"tested_on": "3T3-L1 adipocytes", "experiment": "Mitochondrial membrane potential (JC-1)", "type": "cell-based, mouse", "settings": "H2O2 100 nmol/L, 48 hours", "procedure": "3T3-L1 preadipocytes were incubated at a density of 8000 cells/cm^2 (10 cm^2 dish) and grown in Dulbecco's modified Eagle's medium (DMEM) containing 10% FBS and antibiotics (adipocyte medium) at 37° C. in 5% CO2 in air. Confluent preadipocytes were induced to differentiate with a standard differentiation medium consisting of DMEM-F10 (1:1, vol/vol) medium supplemented with 1% FBS, 1 μM dexamethasone, IBMX (0.5 mM) and antibiotics (1% Penicillin-Streptomycin). Preadipocytes were maintained in this differentiation medium for 3 days and subsequently cultured in adipocyte medium. Cultures were re-fed every 2-3 days to allow 90% of cells to reach full differentiation before conducting chemical treatment. Chemicals were freshly diluted in adipocyte medium before treatment. […] Cell viability was measured via trypan blue exclusion.\nMitochondrial membrane potential was analyzed fluorometrically with a lipophilic cationic dye JC-1 (5,5′,6,6′-tetrachloro-1,1′,3,3′-tetraethylbenzimidazol carbocyanine iodide) using a mitochondrial potential detection kit (Biocarta, San Diego, Calif.). Mitochondrial potential was determined as the ratio of red fluorescence (excitation 550 nm, emission 600 nm) and green fluorescence (excitation 485 nm, emission 535 nm) using a fluorescence microplate reader."}, "IL-6 [3]": {"tested_on": "IL-6", "experiment": "IL-6 expression in 3T3-L1 adipocytes", "type": "cell-based, mouse", "procedure": "3T3-L1 pre-adipocytes were incubated at a density of 8000 cells/cm^2 (10 cm^2 dish) and grown in Dulbecco's modified Eagle's medium (DMEM) containing 10% FBS and antibiotics (adipocyte medium) at 37° C. in 5% CO2 in air. Confluent pre-adipocytes were induced to differentiate with a standard differentiation medium consisting of DMEM-F10 (1:1, vol/vol) medium supplemented with 1% fetal bovine serum (FBS), 1 μM dexamethasone, isobutylmethylxanthine (IBMX) (0.5 mM) and antibiotics (1% Penicillin-Streptomycin). Pre-adipocytes were maintained in this differentiation medium for 3 days and subsequently cultured in adipocyte medium. Cultures were re-fed every 2-3 days to allow 90% cells to reach fully differentiation before conducting chemical treatment.\nCells were incubated in serum free medium overnight before chemical treatment. Chemicals were freshly diluted in adipocyte medium before treatment. […] Cell viability was measured via trypan blue exclusion.\nAdipocyte and muscle 18s, TNFα, IL-6, IL-8, IL-15 and adiponectin were quantitatively measured using a smart cycler real-time PCR system (Cepheid, Sunnyvale, Calif.) with a TaqMan 1000 Core Reagent Kit (Applied Biosystems, Branchburg, N.J.). […] Reactions of quantitative RT-PCR for standards and unknown samples were also performed according to the instructions of Smart Cycler System (Cepheid, Sunnyvale, Calif.) and TaqMan Real Time PCR Core Kit (Applied Biosystems, Branchburg, N.J.). The mRNA quantitation for each sample was further normalized using the corresponding 18s quantitation. […]\nAdipocyte and muscle 18s, CD14, TNFα, MIP, M-CSF, IL-6 and MCP-1 were quantitatively measured using a Smart Cycler Real Time PCR System (Cepheid, Sunnyvale, Calif.) with a TaqMan 1000 Core Reagent Kit (Applied Biosystems, Branchburg, N.J.). […] Reactions of quantitative RT-PCR for standards and unknown samples were also performed according to the instructions of Smart Cycler System (Cepheid, Sunnyvale, Calif.) and TaqMan Real Time PCR Core Kit (Applied Biosystems, Branchburg, N.J.). […]"}, "IL-6 [4]": {"tested_on": "IL-6", "experiment": "IL-6 expression in RAW 264 macrophages", "type": "cell-based", "settings": "co-culture with differentiated 3T3-L1 adipocytes", "procedure": "RAW 264 macrophages and 3T3-L1 preadipocytes (American Type Culture Collection) were incubated at a density of 8000 cells/cm2 (10 cm2 dish) and grown in Dulbecco's modified Eagle's medium (DMEM) containing 10% FBS and antibiotics (adipocyte medium) at 37° C. in 5% CO2 in air. Confluent 3T3-L1 preadipocytes were induced to differentiate with a standard differentiation medium consisting of DMEM-F10 (1:1, vol/vol) medium supplemented with 1% FBS, 1 μM dexamethasone, IBMX (0.5 mM) and antibiotics (1% Penicillin-Streptomycin). Preadipocytes were maintained in this differentiation medium for 3 days and subsequently cultured in adipocyte medium. […]\nCells were washed with fresh adipocyte medium, re-fed with medium containing the indicated treatments, and incubated at 37° C. in 5% CO2 for 48 hours before analysis. Cell viability was measured via trypan blue exclusion.\nHuman adipocytes (Zen-Bio, Inc.), 3T3-L1 adipocytes, RAW264 macrophages were obtained and co-cultured by using transwell inserts with 0.4 μm porous membranes (Corning) to separate adipocytes and macrophages. All data are expressed as mean±SEM. Data were evaluated for statistical significance by analysis of one-way or two-way variance (ANOVA; means with different letter differ, p<0.05). […]"}}}
{"smiles": "OO", "note": "[H2O2, hydrogen peroxide]", "values": [{"measurement": "increase in total DNA of cultured cells", "setting": "3T3-L1 adipocytes [1]; H2O2 100 nmol/L, p<0.001", "value": 39, "unit": "%"}, {"measurement": "increase in mitochondrial potential", "setting": "3T3-L1 adipocytes [2]", "value": 72, "unit": "%"}, {"measurement": "increase in IL-6 expression", "setting": "IL-6 [3]; 100 nmol/L H2O2, 48 h, p<0.001", "value": 167, "unit": "%"}]}
{"smiles": "C=C1/C(=C\\C=C2/CCC[C@]3(C)[C@@H]([C@H](C)CCCC(C)(C)O)CC[C@@H]23)C[C@@H](O)C[C@@H]1O", "note": "[calcitriol, 1,25-(OH)2-D3]", "values": [{"measurement": "effect on IL-6 expression in macrophages", "setting": "IL-6 [4]", "value": "further enhanced"}, {"measurement": "effect on glucose induced DNA synthesis", "setting": "3T3-L1 adipocytes [1]; compound plus glucose 30 mmol/L", "value": "augmented"}, {"measurement": "effect on IL-6 expression", "setting": "IL-6 [3]; 10 nmol/L 1α, 25-(OH)2-D3, 48 h", "value": "markedly increased"}, {"measurement": "effect on IL-6 expression", "setting": "IL-6 [3]; calcitriol 10 nmol/L, 48 hours (Example 4)", "value": "markedly stimulate"}]}
